Test results from patent US11945826B2, “Hydroxypyridoxazepines as NRF2 activators” (GLAXOSMITHKLINE INTELLECTUAL PROPERTY DEVELOPMENT LIMITED, priority 2019, dated 2024).

Key:
murine TAC model = assay: Mouse Transverse Aortic Constriction (TAC) Left Ventricular Pressure Overload Model; assay type: in vivo, C57BLK/6J mice; settings: 10-week mouse TAC, Example 1 at 1, 3, 10 mg/kg/d, Example B at 100 mg/kg/d
Description: Male C57BLK/6J mice (10-12 weeks old) were individually housed and acclimated to a standard powdered rodent diet for 1-3 days. Water was offered ad libitum throughout the study. Mice were initially anesthetized in a chamber using an 3% isoflurane with oxygen (1.0 L/min), and then maintained at 1.5% via nose cone (without intubation). A small incision (˜5 mm) was made just left of midline and just above the rib cage at the level of the suprasternal notch. The muscle tissue was retracted to expose the area above the pleural cavity. The lobes of the thymus were separated and retracted to expose the aortic arch. Fine surgical forceps with blunted tips were used to expose a region above and below the aorta. A micro blunt hook tied with 7-0 silk surgical suture was looped under the aorta and the suture pulled through. The suture was tied-off against a small piece of blunted 27 G needle and the needle was then removed creating the aortic constriction (a 60-70% constriction of the lumen). The incision was closed using 6-0 silk suture for the muscle layer, then the skin with Medbond. The sham procedure was identical without ligation of aorta. Depending on the individual study designs, drug administration began either on the day of surgery, or 1-2 weeks after surgery (detailed in figure legends) and continued until the end of study. Compounds were administered in the mouse chow unless otherwise noted in FIG. 12 legends. TAC study duration was either 6 weeks or 10 weeks in duration. All TAC study endpoints were collected at the end of study. Following heart dissections, samples were either snap frozen in liquid nitrogen and stored at −80° C. or placed in 10% neutral buffered formalin until analysis.
Echocardiography: For mouse TAC studies, echocardiography was performed on a Vevo 2100 high frequency imaging system. Animals were anesthetized with 2-3% isoflurane and sedation maintained with 1% isoflurane with animals on a heating pad. B-mode imaging of three cardiac cycles was used to assess ejection fraction (EF), end diastolic volume (EDV), end systolic volume (ESV), LV mass, and heart rate. ECG was used to measure heart rate during the echocardiography procedure.
NADPH dehydrogenase [quinone]-1 (NQO1) activity: Left ventricular (LV) tissue NQO1 activity was determined using an NQO1 assay kit per manufacturer's protocol (Abcam, Cambridge MA)
The KEAP1 blockers/Nrf2 activators, (R)-3-(1,4-dimethyl-1H-benzo[d][1,2,3]triazol-5-yl)-3-(3-(((R)-2-ethyl-7-hydroxy-2,3-dihydropyrido[2,3-f][1,4]oxazepin-4(5H)-yl)methyl)-4-methylphenyl)propanoic acid, hydrochloride, or a tautomer thereof (Example 1) (in dose-response) and (S)-3-(1,4-dimethyl-1H-benzo[d][1,2,3]triazol-5-yl)-3-(3-(((R)-2-ethyl-2,3-dihydropyrido[3,4-f][1,4]oxazepin-4(5H)-yl)methyl)-4-methylphenyl)-2,2-dimethylpropanoic acid (Example B) were evaluated in a 10-week mouse TAC model of severe hemodynamic stress.
FIG. 12 depicts the effect of the KEAP1-kelch domain blockers/Nrf2 activators (R)-3-(1,4-dimethyl-1H-benzo[d][1,2,3]triazol-5-yl)-3-(3-(((R)-2-ethyl-7-hydroxy-2,3-dihydropyrido[2,3-f][1,4]oxazepin-4(5H)-yl)methyl)-4-methylphenyl)propanoic acid, hydrochloride, or a tautomer thereof (Compound of Example 1) and (S)-3-(1,4-dimethyl-1H-benzo[d][1,2,3]triazol-5-yl)-3-(3-(((R)-2-ethyl-2,3-dihydropyrido[3,4-f][1,4]oxazepin-4(5H)-yl)methyl)-4-methylphenyl)-2,2-dimethylpropanoic acid (Compound B) on cardiac function, remodeling, and NQO1 enzyme activity in the murine 10-week TAC model. All compounds were dosed in chow beginning 2-weeks after TAC. […]

[1] = system: Nrf2 (NQO1 activity in BEAS-2B cells); assay: BEAS-2B NQO1 MTT Assay; assay type: cell-based; settings: Homo sapiens, 48 hours, NQO1 specific activity induction, read-out: EC50
Description: NAD(P)H:quinone oxidoreductase 1 (NQO1), also called DT diaphorase, is a homodimeric FAD-containing enzyme that catalyzes obligatory NAD(P)H-dependent two-electron reductions of quinones and protects cells against the toxic and neoplastic effects of free radicals and reactive oxygen species arising from one-electron reductions. The transcription of NQO1 is finely regulated by Nrf2, and thus NQO1 activity is a good marker for Nrf2 activation. On day one, frozen BEAS-2B cells (ATCC) were thawed in a water bath, counted, and re-suspended at a concentration of 250,000 cells/mL. Fifty microliters of cells were plated in 384 well black clear-bottomed plates. Plates were incubated at 37° C., 5% CO2 overnight. On day two, plates were centrifuged and 50 nL of compound or controls were added to the cells. Plates were then incubated at 37° C., 5% CO2 for 48 hours. On day four, medium was aspirated from the plate and crude cell lysates were made by adding 13 μL of 1× Cell Signalling Technologies lysis buffer with 1 Complete, Mini, EDTA-free Protease Inhibitor Tablet (Roche) for each 10 mL of lysis buffer. After lysis plates were incubated for 20 minutes at room temperature. Two microliters of lysate were removed for use in Cell Titer Glo assay (Promega) and MTT cocktail was prepared (Prochaska et. al. 1998) for measurement of NQO1 activity. Fifty microliters of MTT cocktail was added to each well, plate was centrifuged, and analyzed on an Envision plate reader (Perkin Elmer) using Absorbance 570 nm label for 30 minutes. Product formation was measured kinetically and the pEC50 of NQO1 specific activity induction was calculated by plotting the change in absorbance (Delta OD/min) versus the log of compound concentration followed by 3-parameter fitting.
EC50s<1 nM (+++++), EC50s 1 nM-10 nM (++++), EC50s 10 nM-100 nM (+++), EC50s 100 nM-1 μM (++), EC50s 1 μM-10 μM (+).

Row | SMILES | EC50 [1] | other results
1 | CC[C@@H]1CN(Cc2cc([C@@H](c3ccc4c(nnn4C)c3C)C(C)(C)C(=O)O)ccc2C)Cc2cnccc2O1 [Example B, (S)-3-(1,4-dimethyl-1H-benzo[d][1,2,3]triazol-5-yl)-3-(3-(((R)-2-ethyl-2,3-dihydropyrido[3,4-f][1,4]oxazepin-4(5H)-yl)methyl)-4-methylphenyl)-2,2-dimethylpropanoic acid, reference compound] |  | cardiac function as assessed by ejection fraction (murine TAC model; daily in chow for eight weeks from 2 weeks after TAC): full normalization of cardiac function; NAD(P)H quinone oxidoreductase 1 (NQO1) in the LV (murine TAC model; daily in chow for eight weeks): significant dose-related elevations; cardiac hypertrophy (left ventricular mass) (murine TAC model; daily in chow for eight weeks): did not influence cardiac hypertrophy; unloading the heart (blood pressure) or heart rate (murine TAC model; daily in chow for eight weeks): nor did the ejection fraction change occur by unloading the heart (i.e., lowering blood pressure) or increasing the heart rate
2 | CC[C@H]1CN(Cc2cc([C@@H](c3ccc4c(nnn4C)c3C)C(C)(C)C(=O)O)ccc2C)Cc2nc(O)ccc2O1 [Example 18, (S)-3-(1,4-dimethyl-1H-benzo[d][1,2,3]triazol-5-yl)-3-(3-(((S)-2-ethyl-7-hydroxy-2,3-dihydropyrido[2,3-f][1,4]oxazepin-4(5H)-yl)methyl)-4-methylphenyl)-2,2-dimethylpropanoic acid] | 1 to 10 nM | 
3 | Cc1ccc([C@@H](CC(=O)O)c2ccc3c(nnn3C)c2C)cc1CN1Cc2nc(O)ccc2O[C@@H](C(C)C)C1 [Example 2, (R)-3-(1,4-dimethyl-1H-benzo[d][1,2,3]triazol-5-yl)-3-(3-(((S)-7-hydroxy-2-isopropyl-2,3-dihydropyrido[2,3-f][1,4]oxazepin-4(5H)-yl)methyl)-4-methylphenyl)propanoic acid] | 100 to 1000 nM | 
4 | Cc1ccc([C@@H](CC(=O)O)c2ccc3c(nnn3C)c2C)cc1CN1Cc2nc(O)ccc2O[C@H](C(C)(C)C)C1 [Example 30, (R)-3-(3-(((R)-2-(tert-butyl)-7-hydroxy-2,3-dihydropyrido[2,3-f][1,4]oxazepin-4(5H)-yl)methyl)-4-methylphenyl)-3-(1,4-dimethyl-1H-benzo[d][1,2,3]triazol-5-yl)propanoic acid] | 10 to 100 nM | 
5 | Cc1ccc([C@H](CC(=O)O)c2ccc3c(nnn3C)c2C)cc1CN1Cc2nc(O)ccc2O[C@H](C(F)(F)F)C1 [Example 25, (S)-3-(1,4-dimethyl-1H-benzo[d][1,2,3]triazol-5-yl)-3-(3-(((S)-7-hydroxy-2-(trifluoromethyl)-2,3-dihydropyrido[2,3-f][1,4]oxazepin-4(5H)-yl)methyl)-4-methylphenyl)propanoic acid] | 10 to 100 nM | 
6 | Cc1ccc([C@@H](CC(=O)O)c2ccc3c(nnn3C)c2C)cc1CN1Cc2nc(O)ccc2O[C@H](C(F)(F)F)C1 [Example 6, (R)-3-(1,4-dimethyl-1H-benzo[d][1,2,3]triazol-5-yl)-3-(3-(((S)-7-hydroxy-2-(trifluoromethyl)-2,3-dihydropyrido[2,3-f][1,4]oxazepin-4(5H)-yl)methyl)-4-methylphenyl)propanoic acidacid] | 10 to 100 nM | 
7 | CC[C@@H]1CN(Cc2cc([C@@H](CC(=O)O)c3ccc4c(nnn4C)c3C)ccc2C)Cc2nc(O)c(F)cc2O1 [Example 22, (R)-3-(1,4-dimethyl-1H-benzo[d][1,2,3]triazol-5-yl)-3-(3-(((R)-2-ethyl-8-fluoro-7-hydroxy-2,3-dihydropyrido[2,3-f][1,4]oxazepin-4(5H)-yl)methyl)-4-methylphenyl)propanoic acid] | 1 to 10 nM | 
8 | Cc1ccc([C@@H](c2ccc3c(nnn3C)c2C)C(C)(C)C(=O)O)cc1CN1Cc2nc(O)ccc2O[C@@H](C(C)C)C1 [Example 16, (S)-3-(1,4-dimethyl-1H-benzo[d][1,2,3]triazol-5-yl)-3-(3-(((S)-7-hydroxy-2-isopropyl-2,3-dihydropyrido[2,3-f][1,4]oxazepin-4(5H)-yl)methyl)-4-methylphenyl)-2,2-dimethylpropanoic acid] | 1 to 10 nM | 
